Source: US20240398822A1, “METHODS AND COMPOSITIONS FOR TREATING AND MANAGING ALZHEIMER'S DISEASE” (Pharmatrophix, Inc., priority 2021, published 2024)

Test: Phase 1 SAD/MAD pharmacokinetics
Type: in vivo
Description: The phase 1 study was placebo controlled and double blinded and included 52 subjects in SAD studies and 20 subjects in MAD studies.

**Q.** What does the source list for NCCN1CCOCC1 [aminoethyl morpholine metabolite, aminoethyl morpholine]?
**A.** food effect (elderly adults, fed versus fasted): apparent food effect; pharmacokinetics after single oral doses (exposure proportional to dose over 100-900 mg of free base): linear pharmacokinetics; time to reach steady state upon multiple dosing (in vivo): approximately 5 days post dose
